Paper PMC4340362 (ACS Chemical Biology, 2014)
Like-named read-outs stand apart in the source and are kept apart here.

Tested on: MDA-MB-231 breast cancer cells
Test: Quantitative scratch-wound
Format: cell-based
Conditions: Homo sapiens

C[C@@H]1O[C@@H](O[C@H]2C[C@@H](O)[C@]3(CO)[C@H]4[C@H](O)C[C@]5(C)[C@@H](C6=CC(=O)OC6)CC[C@]5(O)[C@@H]4CC[C@]3(O)C2)[C@H](O)[C@H](O)[C@H]1O [Compound 1, ouabain]
IC50 (MDA-MB-231, read-out: Cell migration IC50): 173 nM
IC50 (MDA-MB-231, read-out: cell migration): 173 nM
